# PMC3255464 (2011)
# Target: galectin-3 carbohydrate recognition domain (Gal3C) (Homo sapiens, UniProt P17931)
# Test: X-ray crystal structure at […] Å
# Type: binding
# galectin-3 carbohydrate recognition domain (Gal3C), sequence (P17931 113-250): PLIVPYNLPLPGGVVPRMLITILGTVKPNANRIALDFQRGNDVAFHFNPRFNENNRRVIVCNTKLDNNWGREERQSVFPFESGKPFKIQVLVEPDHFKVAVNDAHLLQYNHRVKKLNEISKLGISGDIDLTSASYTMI
smiles,measurement,value
OCC(O)CO [glycerol],Kd,> 100 mM
